In the series the target is ATP-dependent translocase ABCB1 (Rattus norvegicus, UniProt P43245). In words: TP_TRANSPORTER: RNase protection assay in vitro, rat hepatoma H-4-II-E cells. It is filed as functional, cell-based.
Sequence of ATP-dependent translocase ABCB1 (P43245 whole entry): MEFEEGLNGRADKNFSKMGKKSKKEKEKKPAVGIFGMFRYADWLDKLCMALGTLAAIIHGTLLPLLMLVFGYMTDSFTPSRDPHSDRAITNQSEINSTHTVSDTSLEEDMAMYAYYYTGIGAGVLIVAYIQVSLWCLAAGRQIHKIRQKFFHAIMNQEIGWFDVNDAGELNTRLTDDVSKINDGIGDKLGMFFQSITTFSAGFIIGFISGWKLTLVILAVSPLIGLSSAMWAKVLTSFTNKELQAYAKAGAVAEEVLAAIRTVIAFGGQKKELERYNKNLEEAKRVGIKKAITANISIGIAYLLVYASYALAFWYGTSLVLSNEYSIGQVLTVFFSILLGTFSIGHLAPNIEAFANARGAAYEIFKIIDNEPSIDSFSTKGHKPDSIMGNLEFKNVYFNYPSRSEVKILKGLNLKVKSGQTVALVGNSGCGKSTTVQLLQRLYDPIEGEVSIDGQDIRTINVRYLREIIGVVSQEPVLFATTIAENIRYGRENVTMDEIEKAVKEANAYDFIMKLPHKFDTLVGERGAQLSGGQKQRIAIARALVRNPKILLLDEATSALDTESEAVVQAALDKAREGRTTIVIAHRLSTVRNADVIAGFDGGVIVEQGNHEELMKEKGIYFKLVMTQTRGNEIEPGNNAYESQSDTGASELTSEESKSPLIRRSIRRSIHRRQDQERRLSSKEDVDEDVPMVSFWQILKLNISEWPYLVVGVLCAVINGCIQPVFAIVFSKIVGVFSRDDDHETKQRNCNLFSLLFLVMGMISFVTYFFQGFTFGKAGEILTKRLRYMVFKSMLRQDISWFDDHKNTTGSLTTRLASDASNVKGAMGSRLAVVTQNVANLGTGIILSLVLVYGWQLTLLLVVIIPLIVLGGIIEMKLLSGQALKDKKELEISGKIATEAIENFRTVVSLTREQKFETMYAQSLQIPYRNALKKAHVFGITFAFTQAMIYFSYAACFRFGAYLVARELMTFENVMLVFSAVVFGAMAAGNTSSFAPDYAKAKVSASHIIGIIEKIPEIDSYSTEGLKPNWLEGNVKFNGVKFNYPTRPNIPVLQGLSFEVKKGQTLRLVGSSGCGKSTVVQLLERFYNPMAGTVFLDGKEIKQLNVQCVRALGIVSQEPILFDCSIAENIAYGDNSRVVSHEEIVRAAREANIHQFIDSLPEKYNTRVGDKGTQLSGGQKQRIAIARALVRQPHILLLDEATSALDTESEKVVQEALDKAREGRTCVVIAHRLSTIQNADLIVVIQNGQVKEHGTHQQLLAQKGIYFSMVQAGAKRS

As for `COc1cccc2c1C(=O)c1c(O)c3c(c(O)c1C2=O)C[C@@](O)(C(C)=O)C[C@@H]3O[C@H]1C[C@H](N)[C@H](O)[C@H](C)O1` [DAUNORUBICIN], the Activity entry was “inducer [+]”.

The values above are taken from ChEMBL document CHEMBL2073882, “Wild-type p53-mediated induction of rat mdr1b expression by the anticancer drug daunorubicin” (J Biol Chem, 1998).
